Consider 14 compounds from patent US20130150340A1, “6-(4-Hydroxy-phenyl)-1H-pyrazolo[3,4-b]pyridine-4-carboxylic acid amide derivatives as kinase inhibitors” (SANOFI, priority 2011, published 2013).

In the experiment the target is T1, human full-length recombinant PKC βII (Homo sapiens, UniProt P05771).
T1 construct: Active human full-length recombinant PKC βII; purchased Invitrogen GmbH, Darmstadt, Germany
T1 sequence (P05771 1-673 isoform P05771-2): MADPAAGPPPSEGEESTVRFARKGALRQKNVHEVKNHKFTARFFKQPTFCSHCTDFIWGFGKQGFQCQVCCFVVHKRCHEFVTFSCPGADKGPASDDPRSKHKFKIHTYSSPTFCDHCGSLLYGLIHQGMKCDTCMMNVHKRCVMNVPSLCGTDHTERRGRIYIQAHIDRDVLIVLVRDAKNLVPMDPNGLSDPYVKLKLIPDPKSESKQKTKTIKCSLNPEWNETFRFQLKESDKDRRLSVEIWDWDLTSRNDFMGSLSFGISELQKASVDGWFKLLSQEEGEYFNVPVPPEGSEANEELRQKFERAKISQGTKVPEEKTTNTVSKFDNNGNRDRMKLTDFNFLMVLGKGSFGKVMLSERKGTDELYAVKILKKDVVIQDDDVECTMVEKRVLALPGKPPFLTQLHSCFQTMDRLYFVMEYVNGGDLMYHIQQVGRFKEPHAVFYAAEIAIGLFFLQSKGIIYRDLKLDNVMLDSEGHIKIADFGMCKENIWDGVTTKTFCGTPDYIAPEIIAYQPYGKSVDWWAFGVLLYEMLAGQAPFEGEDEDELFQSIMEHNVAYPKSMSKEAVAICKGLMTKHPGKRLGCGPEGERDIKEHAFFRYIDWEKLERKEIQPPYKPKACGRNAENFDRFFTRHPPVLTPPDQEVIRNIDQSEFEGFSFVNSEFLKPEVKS
Kind of experiment: Determination of PKC βII inhibition (Caliper mobility-shift kinase assay). In kind it is biochemical. As to conditions: example compounds at a final concentration of 1.14 μM (±0.15 μM); 60 min incubation at 32° C. Here is the method:
Determination of PKC 3H Inhibition
PKC βII inhibition was determined according to the following protocol:
Active human full-length recombinant PKC βII and the peptide substrate, Fluorescein-RFARKGSLRQKNV, were purchased from Invitrogen GmbH, Darmstadt, Germany. Adenosine-5′-triphosphate (ATP), bovine serum albumine (BSA), dimethylsulphoxide (DMSO), 4-(2-hydroxyethyl)piperazine-1-ethanesulfonic acid (Hepes), Triton X-100, 1,2-Dioleoyl-sn-glycerol (DAG), L-α-Phosphatidyl-L-serine (PS), calcium chloride (CaCl2), and Pluronic F-68 were purchased from Sigma-Aldrich, Munich, Germany. Magnesium chloride, 1 M sodium hydroxide solution, 1M hydrochloric acid solution and EDTA were obtained from Merck Biosciences, Darmstadt, Germany.
Test compounds were diluted to three times the test concentration in buffer 1 (30 mM Hepes-NaOH, pH 7.4, 0.01% Pluronic F-68 and 3% (v/v) DMSO). The PKC βII enzyme was diluted to a concentration of 30 ng/ml in buffer 2 (30 mM Hepes-NaOH, pH 7.4, 15 mM MgCl2, 150 μM CaCl2, 150 μg/ml PS, 60 μg/ml DAG, and 0.045% (w/v) Triton X-100). The peptide substrate and ATP were diluted to concentrations of 3 μM and 120 μM, respectively, in buffer 2. Two μl of the compound solution were mixed with 2 μl of the diluted enzyme in a 384-well small volume microtiter plate (Greiner, Bio-One, Frickenhausen, Germany), and the kinase reaction was initiated by addition of 2 μl of the solution containing peptide substrate and ATP. After 60 min incubation at 32° C., the reaction was stopped by addition of 20 μl of a solution containing 130 mM Hepes-NaOH, pH 7.4, 0.0195% (v/v) Brij-35, 6.5 mM EDTA, 0.13% chip coating reagent 3 (Caliper Lifescience Inc, Hopkinton, Mass.) and 6.5% (v/v) DMSO. Phosphorylation of the substrate peptide was then detected on a Caliper 3000 instrument essentially as described by Pommereau et al (J. Biomol. Screening 2004, 9(5), […]), Separation conditions were as follows: Pressure −0.8 psi, upstream voltage −3000 V, downstream voltage −800 V. Positive controls (buffer 1 instead of compound) and negative controls (buffer 1 instead of compound and buffer 2 instead of kinase solution) were run in parallel on each plate. Fractional turnover (R) was determined as the height of the peak of the phosphorylated peptide product divided by the sum of the unphosphorylated substrate and phosphorylated product peak heights. Percent-inhibition values for the test compounds were determined using the formula
% Inhibition=100*(1−(Rcompound−Rnegative control)/(Rpositive control−Rnegative control).
Usually inhibition stands for the percentage by which the read-out fell short of the control. `CC1CN(C(=O)c2cc(-c3ccc(O)cc3)nc3[nH]ncc23)CCN1` (centres unmarked) [Example 37, [6-(4-Hydroxy-phenyl)-1H-pyrazolo[3,4-b]pyridin-4-yl]-(3-methyl-piperazin-1-yl)-methanone]: the inhibition at 1.14 µM came out at 91%.
The same measure for `CC(=O)N1CCCN(C(=O)c2cc(-c3ccc(O)cc3)nc3[nH]ncc23)CC1` [Example 59, 1-{4-[6-(4-Hydroxy-phenyl)-1H-pyrazolo[3,4-b]pyridine-4-carbonyl]-[1,4]diazepan-1-yl}-ethanone]: 48%; for `O=C1CCC(CNC(=O)c2cc(-c3ccc(O)cc3)nc3[nH]ncc23)N1` (centres unmarked) [Example 63, 6-(4-Hydroxy-phenyl)-1H-pyrazolo[3,4-b]pyridine-4-carboxylic acid (5-oxo-pyrrolidin-2-ylmethyl)-amide]: 48%.
The same measure for `O=C(c1cc(-c2ccc(O)cc2)nc2[nH]ncc12)N1CCCC2(CNCCO2)C1` (centres unmarked) [Example 28, [6-(4-Hydroxy-phenyl)-1H-pyrazolo[3,4-b]pyridin-4-yl]-(1-oxa-4,8-diaza-spiro[5.5]undec-8-yl)-methanone]: 15%; for `O=C(N[C@@H]1CN2CCC1CC2)c1cc(-c2ccc(O)cc2)nc2[nH]ncc12` [Example 40, 6-(4-Hydroxy-phenyl)-1H-pyrazolo[3,4-b]pyridine-4-carboxylic acid-(S)-(1-Aza-bicyclo[2.2.2]oct-3-yl)amide]: 71%; for `N[C@H]1CC[C@H](CNC(=O)c2cc(-c3ccc(O)cc3)nc3[nH]ncc23)CC1` [Example 11, 6-(4-Hydroxy-phenyl)-1H-pyrazolo[3,4-b]pyridine-4-carboxylic acid (trans-4-amino-cyclohexylmethyl)-amide]: 87%.
The same measure for `NC1CCN(C(=O)c2cc(-c3ccc(O)cc3)nc3[nH]ncc23)CC1` [Example 38, (4-Amino-piperidin-1-yl)-[6-(4-hydroxy-phenyl)-1H-pyrazolo[3,4-b]pyridin-4-yl]-methanone]: 60%; for `O=C(NC1CCNCC1)c1cc(-c2ccc(O)cc2)nc2[nH]ncc12` [Example 2, 6-(4-Hydroxy-phenyl)-1H-pyrazolo[3,4-b]pyridine-4-carboxylic acid piperidin-4-ylamide]: 27%.
Turning to `CC1(C)CNCCN1C(=O)c1cc(-c2ccc(O)cc2)nc2[nH]ncc12` [Example 10, (2,2-Dimethyl-piperazin-1-yl)-[6-(4-hydroxy-phenyl)-1H-pyrazolo[3,4-b]pyridin-4-yl]-methanone], the inhibition at 1.14 µM was determined as 96%.
For the compound `CN(C(=O)c1cc(-c2ccc(O)cc2)nc2[nH]ncc12)C1CCNCC1` [Example 42, 6-(4-Hydroxy-phenyl)-1H-pyrazolo[3,4-b]pyridine-4-carboxylic acid methyl-piperidin-4-yl-amide], the inhibition at 1.14 µM is 39%.
The same measure for `CO[C@H]1CNC[C@@H]1NC(=O)c1cc(-c2ccc(O)cc2)nc2[nH]ncc12` (racemic) [Example 29, 6-(4-Hydroxy-phenyl)-1H-pyrazolo[3,4-b]pyridine-4-carboxylic acid (trans-4-methoxy-pyrrolidin-3-yl)-amide]: 87%; for `CC1(C)CC(NC(=O)c2cc(-c3ccc(O)cc3)nc3[nH]ncc23)CC(C)(C)N1` [Example 1, 6-(4-Hydroxy-phenyl)-1H-pyrazolo[3,4-b]pyridine-4-carboxylic acid (2,2,6,6-tetramethyl-piperidin-4-yl)-amide]: 18%.
The same measure for `O=C(c1cc(-c2ccc(O)cc2)nc2[nH]ncc12)N1CCN(C(=O)C2CCCO2)CC1` (centres unmarked) [Example 61, [6-(4-Hydroxy-phenyl)-1H-pyrazolo[3,4-b]pyridin-4-yl]-[4-(tetrahydro-furan-2-carbonyl)-piperazin-1-yl]-methanone]: 22%; for `O=C(N[C@H]1CN2CCC1CC2)c1cc(-c2ccc(O)cc2)nc2[nH]ncc12` [Example 18, 6-(4-Hydroxy-phenyl)-1H-pyrazolo[3,4-b]pyridine-4-carboxylic acid-(R)-(1-Aza-bicyclo[2.2.2]oct-3-yl)amide]: 72%.
